From PubChem BioAssay (NCI)
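Results reflect a 48-hour exposure of cells in 96-well plates to compound at five concentrations. At the GI50, growth is halved. At the TGI there is no net growth.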

Experiments:
Assay in all cases: NCI tumour cell line growth inhibition, 48 h
SF-295 CNS = test system: SF-295 CNS
NCI-H522 lung = test system: NCI-H522 lung
HL-60(TB) leukemia = test system: HL-60(TB) leukemia
OVCAR-5 ovarian = test system: OVCAR-5 ovarian
SK-OV-3 ovarian = test system: SK-OV-3 ovarian
CAKI-1 renal = test system: CAKI-1 renal
UO-31 renal = test system: UO-31 renal
EKVX NSCLC = test system: EKVX NSCLC
M14 melanoma = test system: M14 melanoma
MCF7 breast = test system: MCF7 breast

SMILES	GI50 (SF-295 CNS)	TGI (SF-295 CNS)	GI50 (NCI-H522 lung)	TGI (NCI-H522 lung)	GI50 (HL-60(TB) leukemia)	TGI (HL-60(TB) leukemia)	GI50 (OVCAR-5 ovarian)	TGI (OVCAR-5 ovarian)	GI50 (SK-OV-3 ovarian)	TGI (SK-OV-3 ovarian)	GI50 (CAKI-1 renal)	TGI (CAKI-1 renal)	GI50 (UO-31 renal)	TGI (UO-31 renal)	GI50 (EKVX NSCLC)	TGI (EKVX NSCLC)	GI50 (M14 melanoma)	TGI (M14 melanoma)	GI50 (MCF7 breast)	TGI (MCF7 breast)
COC1C[C@H](O[C@@H]2C[C@H](O[C@@H]3C[C@H](O[C@@H]4C(=O)c5c(cc6cc(O[C@H]7C[C@@H](O[C@H]8C[C@@H](O)[C@H](O)C(C)O8)[C@H](O)C(C)O7)c(C)c(O)c6c5O)C[C@H]4C(OC)C(=O)[C@@H](O)[C@@H](C)O)OC(C)[C@H]3O)OC(C)[C@@H]2O)OC(C)[C@@H]1O (stereo not given in full)	0.104 µM	> 32.5 µM	0.0696 µM	0.265 µM	0.362 µM	> 32.5 µM	0.106 µM	> 32.5 µM	0.105 µM	> 32.5 µM	8 µM	> 32.5 µM	0.294 µM	4.76 µM	0.122 µM	10.3 µM	0.191 µM	2.15 µM	0.0493 µM	> 32.5 µM
C=C1C(=O)O[C@H]2[C@H]1CC/C(COC(=O)NCCc1ccc(Br)cc1)=C\CC[C@@]1(C)O[C@@H]21	3.81 µM	15.5 µM	1.16 µM	2.73 µM	1.06 µM	3.97 µM	1.96 µM	4.47 µM	10.8 µM	22.8 µM	1.42 µM	2.77 µM	1.55 µM	2.95 µM	1.54 µM	3.29 µM	1.26 µM	2.73 µM	0.417 µM	1.82 µM
CCN(CC(O)COc1ccc2c(c1)[n+]([O-])nc(N)[n+]2[O-])C(C)=O (stereo not given)	–	> 100 µM	–	> 100 µM	–	> 100 µM	–	> 100 µM	–	> 100 µM	–	> 100 µM	–	> 100 µM	–	> 100 µM	–	> 100 µM	–	> 100 µM
Cc1c(-c2c(F)cc(C(N)=O)c3[nH]c4c(c23)CC[C@H](C(C)(C)O)C4)cccc1-n1c(=O)c2cccc(F)c2n(C)c1=O	4.36 µM	39.6 µM	2.81 µM	32.9 µM	0.971 µM	3.22 µM	2.83 µM	> 100 µM	6.35 µM	> 100 µM	2.08 µM	> 100 µM	1.01 µM	5.59 µM	1.95 µM	> 100 µM	3.69 µM	66.1 µM	1.04 µM	> 100 µM
Nc1[nH]c(=S)[nH]c(=O)c1N=Nc1c(Br)cc(S(N)(=O)=O)cc1Br	–	> 100 µM	–	> 100 µM	–	> 100 µM	–	> 100 µM	–	> 100 µM	–	> 100 µM	–	> 100 µM	–	> 100 µM	–	> 100 µM	–	> 100 µM
Cc1cc(C2CC(O)C(CO)O2)c(Br)cc1Br (stereo not given)	> 100 µM	> 100 µM	> 100 µM	> 100 µM	73.4 µM	> 100 µM	> 100 µM	> 100 µM	> 100 µM	> 100 µM	> 100 µM	> 100 µM	> 100 µM	> 100 µM	84.5 µM	> 100 µM	> 100 µM	> 100 µM	> 100 µM	> 100 µM
COc1ccc(CC2OC3(CCCCC3)CC3CCCCN32)cc1 (stereo not given)	–	> 100 µM	–	> 100 µM	–	> 100 µM	–	> 100 µM	–	> 100 µM	–	> 100 µM	–	> 100 µM	–	> 100 µM	–	> 100 µM	–	> 100 µM
CC1NCCC(CC(=O)O)C1CC(=O)O (stereo not given)	–	> 100 µM	–	> 100 µM	–	> 100 µM	–	> 100 µM	–	> 100 µM	–	> 100 µM	–	> 100 µM	–	> 100 µM	–	> 100 µM	–	> 100 µM
Cc1cc(S(=O)(=O)Nc2nc3ccccc3s2)c(SCc2ccccc2)cc1Cl	11 µM	32.4 µM	31.5 µM	> 100 µM	17.3 µM	45.4 µM	18.8 µM	36.7 µM	32.4 µM	98.4 µM	4.12 µM	17.6 µM	19.4 µM	45.9 µM	13.2 µM	49.2 µM	19.2 µM	36.6 µM	31 µM	> 100 µM
O=C(Nc1n[nH]c2cc(-c3ccc(F)cc3)ccc12)C1CC1	9.07 µM	24.6 µM	4.92 µM	> 21.1 µM	6.69 µM	22.3 µM	14.8 µM	> 25 µM	6.24 µM	20.3 µM	9.75 µM	> 25 µM	3.74 µM	> 25 µM	12.2 µM	> 25 µM	8.6 µM	> 25 µM	5.54 µM	> 22.2 µM
COc1cccc(/C=C/C(=O)c2cc3c(N)c(C(=O)Nc4ccccc4)sc3nc2C)c1	6.27 µM	> 50 µM	1.06 µM	3.08 µM	1.02 µM	2.72 µM	1.28 µM	4.61 µM	4.96 µM	19.8 µM	0.933 µM	1.91 µM	0.842 µM	1.62 µM	5.8 µM	13.1 µM	1.27 µM	3.52 µM	1.69 µM	8.85 µM
NS(=O)(=O)c1ccc(NC(=O)Nc2cccc3ccccc23)cc1	–	> 100 µM	–	34.9 µM	–	> 100 µM	–	> 100 µM	–	> 100 µM	–	> 100 µM	–	31.8 µM	–	80.8 µM	–	> 100 µM	–	> 100 µM
c1ccc(OCC[P+](c2ccccc2)(c2ccccc2)c2ccccc2)cc1	2.05 µM	15.7 µM	0.335 µM	3.74 µM	0.275 µM	1.45 µM	2.66 µM	20.6 µM	2.08 µM	8.16 µM	25.4 µM	> 100 µM	16.9 µM	> 79 µM	0.701 µM	> 40.1 µM	1.57 µM	9.59 µM	1.24 µM	11.1 µM
Cc1ccc2c(c1)n([O-])c(C(F)(F)F)c(C(=O)c1ccco1)[n+]2=O	0.457 µM	1.97 µM	1.42 µM	12.5 µM	1.09 µM	21.8 µM	1.72 µM	9.03 µM	1.59 µM	7.39 µM	0.0845 µM	0.448 µM	0.319 µM	1.81 µM	0.719 µM	2.88 µM	1.3 µM	6.55 µM	0.762 µM	4.9 µM
CN(N=O)N1C(=O)SCC(c2ccccc2)(c2ccccc2)C1=O	–	> 100 µM	–	91.1 µM	–	> 100 µM	–	> 100 µM	–	64.6 µM	–	> 100 µM	–	> 100 µM	–	> 100 µM	–	> 100 µM	–	62.2 µM
Nc1ncnc2c1ncn2Cc1ccc(CCl)cc1	15.7 µM	34.4 µM	24 µM	51.9 µM	54.7 µM	> 100 µM	18.8 µM	35.2 µM	19.7 µM	40.8 µM	14.3 µM	28.9 µM	22.3 µM	46.8 µM	17 µM	34.9 µM	25.2 µM	60.5 µM	11.7 µM	62.7 µM
O=C(Nc1ccn(C2CCC(COC(c3ccccc3)(c3ccccc3)c3ccccc3)O2)c(=O)n1)c1ccccc1 (stereo not given)	–	5.9 µM	–	19.2 µM	–	4.7 µM	–	7.95 µM	–	26.3 µM	–	13.4 µM	–	14.1 µM	–	14.4 µM	–	11.8 µM	–	10.2 µM
C=C1[C@H](O)C[C@@H](C(C)C(O)CC=C(C)C)[C@@H](O)[C@@H]2C(C)=CC[C@@H]12 (stereo not given in full)	> 100 µM	> 100 µM	30.3 µM	86.4 µM	> 100 µM	> 100 µM	> 100 µM	> 100 µM	> 100 µM	> 100 µM	> 100 µM	> 100 µM	> 100 µM	> 100 µM	> 100 µM	> 100 µM	> 100 µM	> 100 µM	> 100 µM	> 100 µM
